Measured values as given in EP0409528A2, “Platinum triamine antitumor agents containing substituted anilines” (ENGELHARD CORPORATION, priority 1989, dated 1991).
“And” between values parts separate entries of the source, which are not always exact repeats. Identical values can stand only once.

Legend:
[1] = system: Sarcoma 180a; test: Sarcoma 180 ascites (S180a) antitumor screening; format: in vivo, female CFW mice; details: for %ILS: single ip on day 1, in water; for %ILS / activity against Sarcoma 180a: ILS > 50% indicates activity; for Surv: survivors per group of 6 mice; for maximum ILS: Sarcoma 180a, at 20 mg/kg; for maximum ILS / activity against Sarcoma 180a: single ip administration on Day 1; for activity against Sarcoma 180a: result in words
Protocol: (§1) All of the compounds of the Examples were tested against Sarcoma 180a in female CFW mice via single ip administration on Day 1. Two of the compounds were active in this system: cis -[Pt(NH3)2(4-iodoaniline)CI]N03 (maximum ILS = 81% at 20 mg/kg) and cis -[Pt(NH3)2(3-iodoaniline)Cl]NO3 (maximum ILS = 83% at 20 mg/kg). The remaining compounds were not active. cis -[Pt(NH3)2(4-iodoaniline)Cl]NO3 was also tested against L1210 leukemia in female CDF1 mice via single ip administration on Day 1.
Female CFW mice (18-25g) were implanted with 2 x 10^6 cells ip on day zero. Compounds were administered in 0.5 mL of water ip on day one. Groups of 6 mice were used for each test dose as well as controls as defined above. The test was run for twice the MST of the control group, with survivors counted as dying on that day. An ILS of > 50% indicates activity. The tumor line was maintained through weekly transfer of 4 x 10^6 cells in CFW mice.

[2] = system: L1210 leukemia; test: L1210 antitumor screening; format: in vivo, female CDF1 mice
Protocol: as §1
L1210 screening was conducted according to a published method. See Rose, et al, Cancer Treat. Repts ., 1982 , 66 , 135, which is incorporated herein by reference. Female CDF, mice (16-22g) were implanted with 1 x 10^6 tumor cells ip on day zero. Compounds were administered in 0.5 mL of water ip on day one. Groups of 6 mice were used for each dose. A control group of mice received only tumor and 0.5 mL of water. A positive control group received tumor and 8 mg/kg cisplatin in 0.5 mL of 0.15 M NaCI. The test was terminated after three times the mean survival time (MST) of the control group. Surviving mice were counted as dying on that day. Activity was determined based on the percent increase in MST of test mice over controls (%ILS). An ILS of > 25% represents activity. The tumor line was maintained through weekly transfer of 5 x 10^4 cells in DBA/2 mice.

[3] = S180a, dose 1.25 mg/kg ip day 1

Row | Compound | %ILS ([1]; S180a, dose 1.25 mg/kg) | %ILS ([1]; S180a, dose 2.5 mg/kg) | %ILS ([1]; S180a, dose 5 mg/kg) | %ILS ([1]; S180a, dose 10 mg/kg) | %ILS ([1]; S180a, dose 20 mg/kg) | %ILS ([1]; S180a, dose 40 mg/kg) | Surv [1, 3] | Surv ([1]; S180a, dose 2.5 mg/kg ip day 1) | Surv ([1]; S180a, dose 5 mg/kg ip day 1) | Surv ([1]; S180a, dose 10 mg/kg ip day 1) | Surv ([1]; S180a, dose 20 mg/kg ip day 1) | Surv ([1]; S180a, dose 40 mg/kg ip day 1) | maximum ILS [1] | activity against Sarcoma 180a [1] | other results
1 | N.N.Nc1ccc(Cl)cc1.O=[N+]([O-])[O-].[Cl][Pt+] [cis-[Pt(NH3)2(4-chloroaniline)Cl]NO3] | 3% | 9% | 40% | 44% | -51% | -77% | 0/6 | 0/6 | 0/6 | 0/6 | 0/6 | 0/6 |  |  | 
2 | N.N.Nc1ccc(Br)cc1.O=[N+]([O-])[O-].[Cl][Pt+] [cis-[Pt(NH3)2(4-bromoaniline)Cl]NO3] | 2% | 7% | 38% | 44% | -14% | -74% | 0/6 | 0/6 | 0/6 | 1/6 | 2/6 | 0/6 |  |  | 
3 | N.N.Nc1ccc(F)cc1.O=[N+]([O-])[O-].[Cl-].[Pt+2] [cis-[Pt(NH3)2(4-fluoroaniline)Cl]NO3, cis-[Pt(NH3)2(4-fluoraniline)Cl]NO3] | 6% | 14% | 27% | 45% | -48% | -77% | 0/6 | 0/6 | 0/6 | 0/6 | 1/6 | 0/6 |  |  | 
4 | N.N.Nc1cccc(I)c1.O=[N+]([O-])[O-].[Cl-].[Pt+2] [cis-[Pt(NH3)2(3-iodoaniline)Cl]NO3] | -3% | 9% | 23% | 51% | 83% | 66% | 0/6 | 0/6 | 0/6 | 1/6 | 2/6 | 4/6 | 83% | active | 
5 | N.N.Nc1ccc(I)cc1.O=[N+]([O-])[O-].[Cl-].[Pt+2] [cis-[Pt(NH3)2(4-iodoaniline)Cl]NO3, cis-(Pt(NH3)2(4-iodoaniline)Cl]NO3] | -1% | 22% | 38% | 39% | 81% |  | 0/6 | 0/6 | 0/6 | 0/6 | 2/6 |  | 81% | active | %ILS ([1]; S180a, dose 0.63 mg/kg): 12%; Surv ([1]; S180a, dose 0.63 mg/kg ip day 1): 0/6; %ILS ([2]; L1210, dose 1.25 mg/kg, single ip on day 1, ILS > 25% represents activity): 14%; Surv ([2]; L1210, survivors per group of 6 mice, dose 1.25 mg/kg ip day 1): 0/6; maximum ILS ([2]; L1210 leukemia, at 10 mg/kg, single ip administration on Day 1): 37%; activity against L1210 leukemia ([2]; result in words, single ip administration on Day 1, ILS > 25% represents activity): moderate level of activity
6 | [NH2][Pt]([NH2])([Cl])[Cl] [Positive Control, cisplatin, reference compound] |  |  |  |  |  |  |  |  |  |  |  |  |  |  | Positive Control SURV ([1]; S180a, positive control group: 8 mg/kg cisplatin in 0.15 M NaCl ip day 1, survivors per 6 mice): 4/6 and 5/6 and 6/6; Positive Control %ILS ([1]; S180a, positive control group: 8 mg/kg cisplatin in 0.5 mL of 0.15 M NaCl ip day 1): 92% and 95% and 98%; Positive Control SURV ([2]; L1210, positive control group: 8 mg/kg cisplatin in 0.15 M NaCl ip day 1, survivors per 6 mice): 5/6; Positive Control %ILS ([2]; L1210, positive control group: 8 mg/kg cisplatin in 0.5 mL of 0.15 M NaCl ip day 1): 190%
